SMILES strings stand for the structures. Structures can show the parent of a compound that is named as a salt.

Sequence of Sphingosine 1-phosphate receptor 1 (P21453 whole entry): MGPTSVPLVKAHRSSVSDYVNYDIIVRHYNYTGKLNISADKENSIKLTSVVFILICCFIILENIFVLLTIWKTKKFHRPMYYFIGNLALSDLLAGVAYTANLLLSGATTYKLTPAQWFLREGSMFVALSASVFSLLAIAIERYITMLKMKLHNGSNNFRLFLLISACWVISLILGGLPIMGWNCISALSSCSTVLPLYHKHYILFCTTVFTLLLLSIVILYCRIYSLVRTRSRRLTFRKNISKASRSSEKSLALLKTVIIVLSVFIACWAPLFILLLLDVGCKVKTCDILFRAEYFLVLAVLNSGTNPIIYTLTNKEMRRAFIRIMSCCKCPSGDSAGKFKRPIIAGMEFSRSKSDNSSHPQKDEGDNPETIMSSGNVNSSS

The first test has as its target Sphingosine 1-phosphate receptor 1 (Homo sapiens, UniProt P21453). The test is described as follows: S1P1 receptor agonists, dose response, cell-based, agonist mode, 60K MLSMR set (AID 468).
Conditions: not given
As for `Oc1ccc(C2NCc3ccccc3-n3cccc32)cc1Cl` (centres undefined) [2-chloranyl-4-(5,6-dihydro-4H-pyrrolo[1,2-a][1,4]benzodiazepin-4-yl)phenol;hydrochloride], the response was half-maximal at 3.04 µM (EC50). This counts as single-digit micromolar.
Still for that read-out and setting: the same measure for `CCOC(=O)c1ccc2c(c1)C(=O)N(C1CCCCC1)C2=O` [2-cyclohexyl-1,3-diketo-isoindoline-5-carboxylic acid ethyl ester]: above 95 µM; for `CCOc1nc(C)ccc1-c1noc(-c2ccncc2)n1` [2-ethoxy-6-methyl-3-[5-(4-pyridinyl)-1,2,4-oxadiazol-3-yl]pyridine]: 5.42 µM.
Same read-out and setting: the same measure for `COc1cc(C#CC#CCN2CCCCC2)ccc1O` [2-methoxy-4-(5-piperidin-1-ylpenta-1,3-diynyl)phenol;hydrochloride]: 8.34 µM; for `COCC(=O)Nc1cccc(C(F)(F)F)c1` [2-methoxy-N-[3-(trifluoromethyl)phenyl]acetamide]: above 95 µM.
Turning to `Cc1ccc(-n2c(C)cc(C(=O)COC(=O)c3c(C)noc3C)c2C)cc1` [3,5-dimethyl-4-isoxazolecarboxylic acid [2-[2,5-dimethyl-1-(4-methylphenyl)-3-pyrrolyl]-2-oxoethyl] ester], the midpoint of the response, the EC50, lay at 8.31 µM.
Turning to `N#CCCS(=O)(=O)c1nnnn1-c1ccccc1` [3-(1-phenyltetrazol-5-yl)sulfonylpropanenitrile], the EC50 (usually the concentration at which the effect is half-maximal) turned out to be 3.66 µM.
The same measure, in the same setting: then `O=c1c(-c2ccc3c(c2)OCCO3)c(C(F)(F)F)oc2cc(O)cc(O)c12` [3-(2,3-dihydro-1,4-benzodioxin-6-yl)-5,7-bis(oxidanyl)-2-(trifluoromethyl)chromen-4-one], with 4.13 µM.
The same measure, in the same setting: then `CCOC(=O)c1oc2cc(O)c(CC)cc2c(=O)c1-c1ccc2c(c1)OCCO2` [3-(2,3-dihydro-1,4-benzodioxin-6-yl)-6-ethyl-7-hydroxy-4-keto-chromene-2-carboxylic acid ethyl ester], with above 10 µM; and `Cc1cc(-c2nnc(-c3ccccc3)c(-c3ccccc3)n2)c(C)o1` [3-(2,5-dimethyl-3-furanyl)-5,6-diphenyl-1,2,4-triazine], with 2.97 µM; and `CCOc1ccc(-c2noc(-c3ccncc3)n2)cc1OCC` [3-(3,4-diethoxyphenyl)-5-(4-pyridyl)-1,2,4-oxadiazole], with 0.613 µM.
The compound `Cc1oc2cc(O)cc(O)c2c(=O)c1-c1ccc2c(c1)OCCCO2` [3-(3,4-dihydro-2H-1,5-benzodioxepin-7-yl)-2-methyl-5,7-bis(oxidanyl)chromen-4-one] showed an EC50 of 4.54 µM.
Compound `COc1ccc(-c2noc(-c3cc(C)cc(C)c3)n2)cc1OC` [3-(3,4-dimethoxyphenyl)-5-(3,5-dimethylphenyl)-1,2,4-oxadiazole] showed an EC50 of 1.23 µM.
Still for that read-out and setting: the same measure for `CCOc1ccc(-c2noc(-c3cccnc3)n2)cc1OC` [3-(4-ethoxy-3-methoxy-phenyl)-5-(3-pyridyl)-1,2,4-oxadiazole]: 1.2 µM; for `CC(C)Oc1cc(O)c2c(=O)c(-c3ccc(O)cc3)coc2c1` [3-(4-hydroxyphenyl)-5-oxidanyl-7-propan-2-yloxy-chromen-4-one]: above 1 µM; for `COc1ccc(-c2nc(-c3ccc(Br)o3)no2)cc1OC` [3-(5-bromanylfuran-2-yl)-5-(3,4-dimethoxyphenyl)-1,2,4-oxadiazole]: 7.98 µM.
Still for that read-out and setting: the same measure for `CN(C)CC(C(=O)c1ccccc1)c1ccccc1` (centres undefined) [3-(dimethylamino)-1,2-diphenyl-1-propanone;hydrochloride]: 9.7 µM; for `CCOc1ccc(-c2nc(-c3ccccc3C)no2)cc1` [3-(o-tolyl)-5-p-phenetyl-1,2,4-oxadiazole]: 1.87 µM; for `CN(C)c1ccnc2sc3c(=O)n(Cc4ccccc4)cnc3c12` [3-Benzyl-9-dimethylamino-3H-pyrido[3',2':4,5]thieno[3,2-d]pyrimidin-4-one]: 2.47 µM.
`Cc1cc(NC(=O)c2oc3ccccc3c2C)ccc1-n1cnnn1` [3-Methyl-benzofuran-2-carboxylic acid (3-methyl-4-tetrazol-1-yl-phenyl)-amide]: the concentration for a half-maximal effect (EC50) was 7.44 µM.
Compound `Cc1cc(C(=O)CC#N)c(C)n1-c1ccc(OC(F)F)cc1` [3-[1-[4-(difluoromethoxy)phenyl]-2,5-dimethyl-3-pyrrolyl]-3-oxopropanenitrile] came in with a half-maximal effective concentration (EC50) above 10 µM.
Compound `O=C(CCc1nc(-c2ccccc2F)no1)Nc1ccc(Oc2ccccc2)cc1` [3-[3-(2-fluorophenyl)-1,2,4-oxadiazol-5-yl]-N-(4-phenoxyphenyl)propanamide] displayed an EC50 of 4.94 µM.
In the case of `COc1ccc(/N=c2\scc(-c3ccc(S(=O)(=O)N4CCOCC4)cc3)n2CCCO)cc1` [3-[(2Z)-2-[(4-methoxyphenyl)imino]-4-[4-(morpholin-4-ylsulfonyl)phenyl]-1,3-thiazol-3(2H)-yl]propan-1-ol], the EC50 is 13.2 µM.
Compound `CCOc1ccc(C(=O)Nc2c(C(N)=O)oc3ccccc23)cc1` [3-[(4-ethoxybenzoyl)amino]-1-benzofuran-2-carboxamide] displayed an EC50 of 4.08 µM.
The same measure, in the same setting: then `CCOc1ccc(C(=O)Nc2ccc(Cl)cn2)cc1Cl` [3-chloranyl-N-(5-chloranylpyridin-2-yl)-4-ethoxy-benzamide], with 5.51 µM.
Consider `Cc1ccc(O)c(NC(=O)CCC2CCCCC2)c1` [3-cyclohexyl-N-(2-hydroxy-5-methyl-phenyl)propionamide], for which the EC50 was above 95 µM.
`Cc1ccsc1C(=O)OCC(=O)c1cc(C)n(CC2CCCO2)c1C` (centres undefined) [3-methyl-2-thiophenecarboxylic acid [2-[2,5-dimethyl-1-(2-oxolanylmethyl)-3-pyrrolyl]-2-oxoethyl] ester] registered an EC50 of 7.53 µM.
On the same count and under the same terms, the same measure for `Cc1nnc2ccc(Oc3ccc(-c4ccccc4)cc3)nn12` [3-methyl-6-(4-phenylphenoxy)-[1,2,4]triazolo[4,3-b]pyridazine]: 5.08 µM; for `Cn1c(=O)oc2cc(S(=O)(=O)N3CCCC(C(=O)N4CC=C(c5ccccc5)CC4)C3)ccc21` (centres undefined) [3-methyl-6-[3-(4-phenyl-3,6-dihydro-2H-pyridine-1-carbonyl)piperidin-1-yl]sulfonyl-1,3-benzoxazol-2-one]: 9.63 µM.
On the same count and under the same terms, then `Oc1ccc(-c2nnc(-c3ccc(O)cc3)nn2)cc1` [4,4'-(1,2,4,5-tetrazine-3,6-diyl)diphenol], with above 10 µM.
Same read-out and setting: then `Nc1ccc(N2CCCCCC2)cc1` [4-(1-azepanyl)aniline;hydrochloride], with above 10 µM.
`NC(=O)c1ccc(OCC(F)(F)C(F)(F)C(F)(F)C(F)(F)C(F)(F)C(F)F)cc1` [4-(2,2,3,3,4,4,5,5,6,6,7,7-dodecafluoroheptoxy)benzamide] returned an EC50 of 8 µM.
Compound `O=C(NCc1ccccc1)N1CCN(c2ccc(Cl)c(Cl)c2)CC1` [4-(3,4-dichlorophenyl)-N-(phenylmethyl)-1-piperazinecarboxamide] registered an EC50 of 7.15 µM.

The same test, now with this note: inactive by the depositor's call.
For `Cc1nc2sc(-c3ccccc3)cc2c(=O)n1-n1cccc1` [2-methyl-6-phenyl-3-(1-pyrrolyl)-4-thieno[2,3-d]pyrimidinone], the EC50 was found to be 22.2 µM. This counts as double-digit micromolar.
On the same count and under the same terms, then `COc1ccc(-c2cn3c(C)c(C(=O)N4CCCc5ccccc54)sc3n2)cc1` [3,4-dihydro-2H-quinolin-1-yl-[6-(4-methoxyphenyl)-3-methyl-2-imidazo[2,1-b]thiazolyl]methanone], with 50.5 µM.
Still for that read-out and setting: the same measure for `Cc1ccc(-c2nc(COC(=O)c3c(C)noc3C)cs2)cc1` [3,5-dimethyl-4-isoxazolecarboxylic acid [2-(4-methylphenyl)-4-thiazolyl]methyl ester]: 26.2 µM; for `Cc1onc(-c2ccccc2Cl)c1C(=O)Oc1cc(N)n(S(=O)(=O)c2ccc(F)cc2)n1` [3-(2-chlorophenyl)-5-methyl-4-isoxazolecarboxylic acid [5-amino-1-(4-fluorophenyl)sulfonyl-3-pyrazolyl] ester]: 18.1 µM.
`CCOc1cc(-c2noc(-c3cccnc3)n2)ccc1OC` [3-(3-ethoxy-4-methoxy-phenyl)-5-(3-pyridyl)-1,2,4-oxadiazole] had an EC50 of 18.7 µM. This EC50 and that of the compound before are within 1.5-fold of each other.
Still for that read-out and setting: the same measure for `COc1ccccc1-c1nc(-c2ccc(Br)cc2)no1` [3-(4-bromophenyl)-5-(2-methoxyphenyl)-1,2,4-oxadiazole]: 12 µM.
The same measure, in the same setting: then `COc1ccc(Cc2nc(-c3ccc(-n4cccc4)cc3)no2)cc1OC` [3-(4-pyrrol-1-ylphenyl)-5-veratryl-1,2,4-oxadiazole], with 13.7 µM; and `CCSc1nc(N2CCOCC2)c2c(c1C#N)CCCC2` [3-(ethylthio)-1-(4-morpholinyl)-5,6,7,8-tetrahydroisoquinoline-4-carbonitrile], with 46.8 µM; and `Nc1c(C(=O)NC2CCCC2)sc2nc(-c3cccs3)ccc12` [3-Amino-6-thiophen-2-yl-thieno[2,3-b]pyridine-2-carboxylic acid cyclopentylamide], with 14.4 µM.
Consider `CC/N=c1\sc(C(=O)NCCc2ccccc2)cc(=O)n1CC` [3-Ethyl-2-[(Z)-ethylimino]-4-oxo-3,4-dihydro-2H-[1,3]thiazine-6-carboxylic acid phenethyl-amide], for which the EC50 was determined as 22.5 µM.
`CCN(CC)S(=O)(=O)c1cccc(S(=O)(=O)c2cccc(S(=O)(=O)N(CC)CC)c2)c1` [3-[3-(diethylsulfamoyl)phenyl]sulfonyl-N,N-diethyl-benzenesulfonamide]: the response was half-maximal at 19.3 µM (EC50).
In turn, `CCn1c(NC(=O)c2cccc(Cn3cc(Cl)cn3)c2)nc2ccccc21` [3-[(4-chloranylpyrazol-1-yl)methyl]-N-(1-ethylbenzimidazol-2-yl)benzamide] yielded an EC50 of 14 µM.
For the compound `C=CCn1c(SCC(=O)c2cccs2)nc2sc(CC)cc2c1=O` [3-allyl-6-ethyl-2-[[2-keto-2-(2-thienyl)ethyl]thio]thieno[2,3-d]pyrimidin-4-one], a half-maximal effect (EC50) was put at 39.9 µM.
On the same count and under the same terms, the same measure for `Cc1cc(C(=O)COC(=O)c2csc3c2CCCC3)c(C)n1C` [4,5,6,7-tetrahydro-1-benzothiophene-3-carboxylic acid [2-oxo-2-(1,2,5-trimethyl-3-pyrrolyl)ethyl] ester]: 18.6 µM; for `O=C(OC1CCCCC1)c1ccc(NC(=O)c2ccco2)cc1` [4-(2-furoylamino)benzoic acid cyclohexyl ester]: 13.4 µM; for `Oc1nnc(Sc2ncnc3sccc23)n1CCc1ccccc1` [4-(2-phenylethyl)-3-(4-thieno[2,3-d]pyrimidinylthio)-1H-1,2,4-triazol-5-one]: 16.9 µM.

Values taken from BindingDB's records for doi:10.7270/Q2251GJ9 (The Scripps Research Institute Molecular Screening Center, 2007).
